Drawing on the NIST ThermoML archive (doi:10.1016/j.jct.2004.12.003), this text covers mass density, Normal boiling temperature and refractive index for 2 molecules.

The conditions of data set [1]: Liquid; for mass density: 293.15 K, 101.33 kPa.
A short description of data set [2]: refractive index (Na D-line) (dimensionless). As to conditions: 293.15 K; 101.33 kPa; Liquid; Standard Abbe refractometry.

Molecules are shown by their SMILES. ± gives the expanded uncertainty stated by the source.

On to `COC(=O)c1ccccc1C(=O)OC` [dimethyl 1,2-benzenedicarboxylate], for which, in data set [1], the mass density was 1191 ± 0.8 kg/m3 and the Normal boiling temperature turned out to be 283.93 ± 0.08 °C. Also, in data set [2], the refractive index worked out at 1.514 ± 0.0011.

With `CCC(=O)O` [propanoic acid], in data set [1], the mass density was determined as 992.7 ± 0.5 kg/m3 and the Normal boiling temperature stood at 141.0 ± 0.08 °C. The refractive index in data set [2] was 1.3811 ± 0.0011.

As a reminder, the mass density is mass per unit of volume. The term refractive index denotes a measure of how strongly the sample bends light.
